The source of these data is US10407407B2, “Benzoimidazole derivatives as PAD4 inhibitors” (GLAXOSMITHKLINE INTELLECTUAL PROPERTY DEVELOPMENT LIMITED, priority 2015, dated 2019).

The target in the test is T1, Recombinant human PAD2 (residues 1-665) (Homo sapiens, UniProt Q9Y2J8).
T1 construct: Recombinant human PAD2 (residues 1-665) was expressed in baculovirus-infected Sf9 insect cells; 6His-FLAG (N); made in house; host or cells: baculovirus-infected Sf9 insect cells
T1 sequence (Q9Y2J8 whole entry, the tested form may be a part): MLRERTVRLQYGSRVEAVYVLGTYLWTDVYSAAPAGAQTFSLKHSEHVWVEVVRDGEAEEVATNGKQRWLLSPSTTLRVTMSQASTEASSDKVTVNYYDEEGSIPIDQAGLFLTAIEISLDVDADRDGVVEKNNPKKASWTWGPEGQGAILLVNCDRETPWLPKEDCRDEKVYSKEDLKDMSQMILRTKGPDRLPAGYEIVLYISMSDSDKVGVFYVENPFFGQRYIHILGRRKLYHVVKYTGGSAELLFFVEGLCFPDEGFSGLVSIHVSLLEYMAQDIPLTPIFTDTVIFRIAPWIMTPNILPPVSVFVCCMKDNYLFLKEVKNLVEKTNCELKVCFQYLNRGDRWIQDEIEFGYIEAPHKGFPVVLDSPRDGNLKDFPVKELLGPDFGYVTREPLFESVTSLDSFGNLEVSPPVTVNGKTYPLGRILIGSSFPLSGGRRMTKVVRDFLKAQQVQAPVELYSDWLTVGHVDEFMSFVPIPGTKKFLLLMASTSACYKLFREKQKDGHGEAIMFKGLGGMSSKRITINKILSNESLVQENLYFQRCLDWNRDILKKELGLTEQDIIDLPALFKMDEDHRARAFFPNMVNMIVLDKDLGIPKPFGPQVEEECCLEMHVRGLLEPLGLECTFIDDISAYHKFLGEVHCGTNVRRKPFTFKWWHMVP
Briefly: PAD2 enzyme assay (FLINT NH3 release, BAEE substrate). In kind it is biochemical. Particulars: PAD2 enzyme assay above or similar assays; to assess selectivity for PAD4 over PAD2; read-out: mean pIC50 (converted). The method, then:
Activity of the final product was determined using a FLINT NH3 release assay.
8 μl of PAD2 enzyme diluted to an assay concentration of 30 nM in assay buffer (100 mM HEPES, 50 mM NaCl, 2 mM DTT, 7.5% glycerol and 1.5 mM CHAPS pH 8), and added to wells containing 0.1 μl of various concentrations of compound or DMSO vehicle (0.8% final) in a Greiner high volume 384 well black plate. […] The reaction was stopped after 90 mins with the addition of […] stop/detection buffer containing 50 mM EDTA, 2.6 mM phthalaldehyde and 2.6 mM DTT.
`CCn1c(-c2nc3cc(C(=O)N4CC[C@H](OC)[C@@H](N)C4)ccc3n2C)cc2ccccc21` (racemic) [Example 51, (+/−)-((trans)-3-Amino-4-methoxypiperidin-1-yl)(2-(1-ethyl-1H-indol-2-yl)-1-methyl-1H-benzo[d]imidazol-5-yl)methanone]: the IC50 is greater than 79.4 µM. Next, `CCn1c(-c2nc3cc(C(=O)N4C[C@@H](N)CC[C@H]4C)ccc3n2C)cc2ccccc21` (single isomer, unassigned) [Example 54, cis-(5-Amino-2-methylpiperidin-1-yl)(2-(1-ethyl-1H-indol-2-yl)-1-methyl-1H-benzo[d]imidazol-5-yl)methanone]: greater than 79.4 µM. Next, `CCn1c(-c2nc3cc(C(=O)N4C[C@H](C)C[C@H](N)C4)ccc3n2C)cc2ccccc21` (single isomer, unassigned) [Example 124, cis-(3-Amino-5-methylpiperidin-1-yl)(2-(1-ethyl-1H-indol-2-yl)-1-methyl-1H-benzo[d]imidazol-5-yl)methanone]: greater than 79.4 µM; `CCn1c(-c2nc3cc(C(=O)N4CCC[C@@H](N)C4)ccc3n2C)cc2ccccc21` [Example 1a]: no less than 10 µM; `CCn1c(-c2nc3cc(C(=O)N4CCC[C@@H](N)C4)ccc3n2C)cc2cccc(OC)c21` [Example 2, (3R)-1-({2-[1-ethyl-7-(methyloxy)-1H-indol-2-yl]-1-methyl-1H-benzimidazol-5-yl}carbonyl)-3-piperidinamine]: no less than 10 µM.

With `CC(C)n1c(-c2nc3cc(C(=O)N4CCC[C@@H](N)C4)ccc3n2C)cc2ccccc21` [Example 12, (3R)-1-({1-Methyl-2-[1-(1-methylethyl)-1H-indol-2-yl]-1H-benzimidazol-5-yl}carbonyl)-3-piperidinamine], the IC50 is no less than 10 µM. Turning to `Cn1c(-c2cc3ccccc3n2CC2CC2)nc2cc(C(=O)N3CCC[C@@H](N)C3)ccc21` [Example 16, (3R)-1-({2-[1-(Cyclopropylmethyl)-1H-indol-2-yl]-1-methyl-1H-benzimidazol-5-yl}carbonyl)-3-piperidinamine], the IC50 is no less than 10 µM. Regarding `Cn1c(-c2cc3ccccc3[nH]2)nc2cc(C(=O)N3CCC[C@@H](N)C3)ccc21` [Example 18, (3R)-1-{[2-(1H-Indol-2-yl)-1-methyl-1H-benzimidazol-5-yl]carbonyl}-3-piperidinamine], the IC50 was no less than 10 µM. Take `CC(C)Cn1c(-c2nc3cc(C(=O)N4CCC[C@@H](N)C4)ccc3n2C)cc2ccccc21` [Example 19, (3R)-1-({1-Methyl-2-[1-(2-methylpropyl)-1H-indol-2-yl]-1H-benzimidazol-5-yl}carbonyl)-3-piperidinamine]: the IC50 was no less than 10 µM. Regarding `Cn1cc(Cn2c(-c3nc4cc(C(=O)N5CCC[C@@H](N)C5)ccc4n3C)cc3ccccc32)cn1` [Example 20a, (3R)-1-[(1-methyl-2-{1-[(1-methyl-1H-pyrazol-4-yl)methyl]-1H-indol-2-yl}-1H-benzimidazol-5-yl)carbonyl]-3-piperidinamine], the IC50 was no less than 10 µM.

In the case of `COCCn1c(-c2nc3cc(C(=O)N4CCC[C@@H](N)C4)ccc3n2C)cc2ccccc21` [Example 22, (3R)-1-[(1-methyl-2-{1-[2-(methyloxy)ethyl]-1H-indol-2-yl}-1H-benzimidazol-5-yl)carbonyl]-3-piperidinamine], the IC50 was greater than 79.4 µM. As for `Cn1c(-c2cc3ccccc3n2CCO)nc2cc(C(=O)N3CCC[C@@H](N)C3)ccc21` [Example 29, 2-[2-(5-{[(3R)-3-Amino-1-piperidinyl]carbonyl}-1-methyl-1H-benzimidazol-2-yl)-1H-indol-1-yl]ethanol], the IC50 was greater than 79.4 µM. As to `CCOc1ccc2cc(-c3nc4cc(C(=O)N5CCC[C@@H](N)C5)ccc4n3C)n(CC)c2c1` [Example 32, (R)-(3-Aminopiperidin-1-yl)(2-(6-ethoxy-1-ethyl-1H-indol-2-yl)-1-methyl-1H-benzo[d]imidazol-5-yl)methanone], the IC50 was no less than 10 µM. Turning to `CCn1c(-c2nc3cc(C(=O)N4CCC[C@@H](N)C4)cc(OC(F)(F)F)c3n2C)cc2ccccc21` [Example 34, (R)-(3-Aminopiperidin-1-yl)(2-(1-ethyl-1H-indol-2-yl)-1-methyl-7-(trifluoromethoxy)-1H-benzo[d]imidazol-5-yl)methanone], the IC50 is no less than 10 µM. Next, `Cn1c(-c2nc3cc(C(=O)N4CCC[C@@H](N)C4)ccc3n2C)cc2ccccc21` [Example 37, (R)-(3-Aminopiperidin-1-yl)(1-methyl-2-(1-methyl-1H-indol-2-yl)-1H-benzo[d]imidazol-5-yl)methanone]: greater than 79.4 µM. Next, `CCn1c(-c2nc3cc(C(=O)N4CCC[C@@H](N)C4)ccc3n2CCN)cc2ccccc21` [Example 48, (R)-(1-(2-Aminoethyl)-2-(1-ethyl-1H-indol-2-yl)-1H-benzo[d]imidazol-5-yl)(3-aminopiperidin-1-yl)methanone]: no less than 10 µM; `COc1cc(C(=O)N2CC[C@@H](O)[C@@H](N)C2)cc2nc(-c3cc4ccccc4n3CC(F)(F)F)n(C)c12` [Example 58a, ((3S,4R)-3-Amino-4-hydroxypiperidin-1-yl)(7-methoxy-1-methyl-2-(1-(2,2,2-trifluoroethyl)-1H-indol-2-yl)-1H-benzo[d]imidazol-5-yl)methanone]: no less than 10 µM. As to `COc1cc(C(=O)N2CC[C@H](O)[C@H](N)C2)cc2nc(-c3cc4ccccc4n3CC(F)(F)F)n(C)c12` [Example 59, ((3R,4S)-3-Amino-4-hydroxypiperidin-1-yl)(7-methoxy-1-methyl-2-(1-(2,2,2-trifluoroethyl)-1H-indol-2-yl)-1H-benzo[d]imidazol-5-yl)methanone], the IC50 is no less than 10 µM. Turning to `CCn1c(-c2nc3cc(C(=O)N4CCC[C@@H](N)C4)cc(N(C)C)c3n2C)cc2ccccc21` [Example 63, (R)-(3-Aminopiperidin-1-yl)(7-(dimethylamino)-2-(1-ethyl-1H-indol-2-yl)-1-methyl-1H-benzo[d]imidazol-5-yl)methanone], the IC50 was greater than 79.4 µM. With `CCn1c(-c2nc3cc(C(=O)N4CC[C@@H](O)[C@@H](N)C4)cc(OC)c3n2C)cc2ccccc21` [Example 67, ((3S,4R)-3-Amino-4-hydroxypiperidin-1-yl)(2-(1-ethyl-1H-indol-2-yl)-7-methoxy-1-methyl-1H-benzo[d]imidazol-5-yl)methanone], the IC50 is greater than 79.4 µM.

On to `CCn1c(-c2nc3cc(C(=O)N4CCC[C@@H](N)C4)cc(NC)c3n2C)cc2ccccc21` [Example 68, (R)-(3-Aminopiperidin-1-yl)(2-(1-ethyl-1H-indol-2-yl)-1-methyl-7-(methylamino)-1H-benzo[d]imidazol-5-yl)methanone], for which the IC50 is greater than 79.4 µM. Next, `COc1cc(C(=O)N2CCC[C@@H](N)C2)cc2nc(-c3cc4ccccc4n3CC3CCOCC3)n(C)c12` [Example 70, (R)-(3-Aminopiperidin-1-yl)(7-methoxy-1-methyl-2-(1-((tetrahydro-2H-pyran-4-yl)methyl)-1H-indol-2-yl)-1H-benzo[d]imidazol-5-yl)methanone]: greater than 79.4 µM; `COc1cc(C(=O)N2CCC[C@@H](N)C2)cc2nc(-c3cc4ccccc4n3CC#N)n(C)c12` [Example 74, (R)-2-(2-(5-(3-Aminopiperidine-1-carbonyl)-7-methoxy-1-methyl-1H-benzo[d]imidazol-2-yl)-1H-indol-1-yl)acetonitrile]: no less than 10 µM.

On to `CCc1cc(C(=O)N2CCC[C@@H](N)C2)cc2nc(-c3cc4ccccc4n3CC)n(C)c12` [Example 75, (R)-(3-Aminopiperidin-1-yl)(7-ethyl-2-(1-ethyl-1H-indol-2-yl)-1-methyl-1H-benzo[d]imidazol-5-yl)methanone], for which the IC50 is no less than 10 µM. Next, `CCn1c(-c2nc3cc(C(=O)N4CCC[C@@H](N)C4)ccc3n2CC)cc2ccccc21` [Example 95, (R)-(3-Aminopiperidin-1-yl)(1-ethyl-2-(1-ethyl-1H-indol-2-yl)-1H-benzo[d]imidazol-5-yl)methanone]: greater than 79.4 µM; `CCn1c(-c2nc3cc(C(=O)N4CCC[C@@H](N)C4)cnc3n2C)cc2ccccc21` [Example 96, (R)-(3-Aminopiperidin-1-yl)(2-(1-ethyl-1H-indol-2-yl)-3-methyl-3H-imidazo[4,5-b]pyridin-6-yl)methanone]: greater than 79.4 µM; `CCn1c(-c2nc3cc(C(=O)N4CCC[C@@H](N)C4)cc(OCCOC)c3n2C)cc2ccccc21` [Example 111, (R)-(3-Aminopiperidin-1-yl)(2-(1-ethyl-1H-indol-2-yl)-7-(2-methoxyethoxy)-1-methyl-1H-benzo[d]imidazol-5-yl)methanone]: no less than 10 µM. For `CCn1c(-c2nc3cc(C(=O)N4CCC[C@@H](N)C4)cc(OCC#N)c3n2C)cc2ccccc21` [Example 113, (R)-2-((5-(3-Aminopiperidine-1-carbonyl)-2-(1-ethyl-1H-indol-2-yl)-1-methyl-1H-benzo[d]imidazol-7-yl)oxy)acetonitrile], the IC50 is no less than 10 µM.

Consider `CCn1c(-c2nc3cc(C(=O)N4CCC[C@@H](N)C4)cc(OCC(N)=O)c3n2C)cc2ccccc21` [Example 114, (R)-2-((5-(3-Aminopiperidine-1-carbonyl)-2-(1-ethyl-1H-indol-2-yl)-1-methyl-1H-benzo[d]imidazol-7-yl)oxy)acetamide], for which the IC50 was greater than 79.4 µM.

Regarding `CCn1c(-c2nc3cc(C(=S)N4CCC[C@@H](N)C4)ccc3n2C)cc2ccccc21` [Example 135, (R)-(3-Aminopiperidin-1-yl)(2-(1-ethyl-1H-indol-2-yl)-1-methyl-1H-benzo[d]imidazol-5-yl)methanethione], the IC50 is no less than 10 µM.
